Patent US20140364453A1, “SALUBRINAL-DRIVEN ATTENUATION OF MALIGNANT PHENOTYPES OF 4T1 BREAST CANCER CELLS” (Indiana University Research and Technology Corporation, priority 2013, published 2014)

Columns and labels:
[1] = system: 4T1 mouse mammary tumor cells; assay: MTT assay, 4T1 cells; format: cell-based
Experimental: (§1) 4T1 mouse mammary tumor cells and MDA-MB-231 human breast cancer cells were cultured in DMEM containing 10% fetal bovine serum and antibiotics (50 units/ml penicillin, and 50 μg/ml streptomycin; Life Technologies, Grand Island, N.Y., USA). Cells were maintained at 37° C. and 5% CO2 in a humidified incubator. Responses to administration of 10-50 μM salubrinal or 5-50 μM guanabenz acetate (Tocris Bioscience, Ellisville, Mo., USA) were evaluated using assays for MTT, adhesion, invasion, and motility. Cells (5×10^2/well) were seeded in 96-well plates, and the reduction of MTT to formazan was evaluated by measuring the absorbance at 570 nm with a plate reader (EL800, BioTek, Winooski, Vt., USA).

cleaved caspase 3 [2] = assay: Western blot of cleaved caspase 3, 4T1 cells; format: cell-based, mouse; conditions: absence and presence of 10% serum, 10-50 μM salubrinal, 5-50 μM guanabenz
Experimental: (§2) 4T1 mouse mammary tumor cells and MDA-MB-231 human breast cancer cells were cultured in DMEM containing 10% fetal bovine serum and antibiotics (50 units/ml penicillin, and 50 μg/ml streptomycin; Life Technologies, Grand Island, N.Y., USA). Cells were maintained at 37° C. and 5% CO2 in a humidified incubator. Responses to administration of 10-50 μM salubrinal or 5-50 μM guanabenz acetate (Tocris Bioscience, Ellisville, Mo., USA) were evaluated using assays for MTT, adhesion, invasion, and motility. Cells were lysed in a radioimmunoprecipitation assay (RIPA) buffer containing protease inhibitors (Santa Cruz Biotechnology, Santa Cruz, Calif., USA) and phosphatase inhibitors (Calbiochem, Billerica, Mass., USA). Isolated proteins were fractionated using 10-15% SDS gels and electro-transferred to Immobilon-P membranes (Millipore, Billerica, Mass., USA). The membrane was incubated for 1 h with primary antibodies followed by 45 min incubation with goat anti-rabbit or anti-mouse IgG conjugated with horseradish peroxidase (Cell Signaling, Danvers, Mass., USA). […] Protein levels were assayed using a SuperSignal west femto maximum sensitivity substrate (Thermo Scientific, Waltham, Mass., USA), and signal intensities were quantified with a luminescent image analyzer (LAS-3000, Fuji Film, Tokyo, Japan).

4T1 cells [3] = assay: Cell adhesion assay, 4T1 cells; format: cell-based, mouse; conditions: surfaces coated with poly-L-lysine, type I collagen, fibronectin, laminin; 30 min and 3 h
Experimental: 4T1 mouse mammary tumor cells and MDA-MB-231 human breast cancer cells were cultured in DMEM containing 10% fetal bovine serum and antibiotics (50 units/ml penicillin, and 50 μg/ml streptomycin; Life Technologies, Grand Island, N.Y., USA). Cells were maintained at 37° C. and 5% CO2 in a humidified incubator. Responses to administration of 10-50 μM salubrinal or 5-50 μM guanabenz acetate (Tocris Bioscience, Ellisville, Mo., USA) were evaluated using assays for MTT, adhesion, invasion, and motility. Ninety-six well plates were coated with poly-L-lysine, fibronectin, laminin (Sigma-Aldrich, St. Louis, Mo., USA), or type I collagen (BD Biosciences, Bedford, Mass., USA) for 2 h. The plates were then incubated with non-fat dry milk, followed by washing with PBS and serum-free culture medium. Cells (1×10^4/well) were added on the plate, and after 30 min and 3 h the attached cells were stained with 0.04% crystal violet (Sigma-Aldrich) for 10 min at room temperature. The wells were washed with PBS, and DMSO was added. Absorbance at 550 nm was measured using the plate reader.

4T1 cells [4] = assay: In vitro invasion assay (Boyden chamber, Matrigel), 4T1 cells; format: cell-based, mouse; conditions: for number of cells invaded through the filter coated with Matrigel: 4T1 cells, 24 h, regardless of serum, 10-50 μM salubrinal, 5-50 μM guanabenz
Experimental: (§3) 4T1 mouse mammary tumor cells and MDA-MB-231 human breast cancer cells were cultured in DMEM containing 10% fetal bovine serum and antibiotics (50 units/ml penicillin, and 50 μg/ml streptomycin; Life Technologies, Grand Island, N.Y., USA). Cells were maintained at 37° C. and 5% CO2 in a humidified incubator. Responses to administration of 10-50 μM salubrinal or 5-50 μM guanabenz acetate (Tocris Bioscience, Ellisville, Mo., USA) were evaluated using assays for MTT, adhesion, invasion, and motility. An invasion assay was performed with a Boyden chamber with minor modifications of the usual procedure. In brief, Matrigel (BD Biosciences) was diluted with ice-cold PBS (100 μg/ml). Six-hundred μl of Matrigel was added to each filter (polyethylene terephthalate membrane, 8-μm pore size, 23.1 mm in diameter, Falcon) and left to polymerize overnight. Prior to assembling the chamber unit, the lower chamber (6-well plate, Falcon) was filled with culture medium consisting of salubrinal or guanabenz. Cells (1˜4×10^5/well) were added to the culture medium with salubrinal or guanabenz in the upper chamber and incubated for 24 h. The cells on the filter surface were stained with Giemsa (Sigma-Aldrich) and the number of cells was counted under the microscope.

4T1 cells [5] = assay: Two-dimensional wound healing scratch motility assay, 4T1 cells; format: cell-based, mouse; conditions: for cell motility (scratch-wound assay): 4T1 cells, 20 or 50 μM, 24 h
Experimental: (§4) 4T1 mouse mammary tumor cells and MDA-MB-231 human breast cancer cells were cultured in DMEM containing 10% fetal bovine serum and antibiotics (50 units/ml penicillin, and 50 μg/ml streptomycin; Life Technologies, Grand Island, N.Y., USA). Cells were maintained at 37° C. and 5% CO2 in a humidified incubator. Responses to administration of 10-50 μM salubrinal or 5-50 μM guanabenz acetate (Tocris Bioscience, Ellisville, Mo., USA) were evaluated using assays for MTT, adhesion, invasion, and motility. To evaluate 2-dimensional motility, a wound healing scratch motility assay was carried out. In brief, cells were plated in 12-well plates or 6-cm dishes (Falcon) and on the next day, scratching was performed using a plastic tip. The areas newly occupied with cells in the scratched zone were determined every 3 h up to 24 h using images obtained by a microscope, which were scanned with Adobe Photoshop (CS2, Adobe Systems, San Jose, Calif., USA) and quantified with Image J.

[6] = system: primary mouse bone marrow cells; assay: Osteoclastogenesis in primary mouse bone marrow cells; format: cell-based; conditions: 10 or 20 μM; 3 days
NFATc1 = NFATc1 protein expression in primary mouse bone marrow cells; format: cell-based; conditions: 10 or 20 μM; 2 days
[7] = system: NFATc1, TRAP, OSCAR, c-fos, MMP9, and cathepsin K; assay: Relative mRNA abundance in primary mouse bone marrow cells; format: cell-based; conditions: 10 μM; 24 h
[8] = system: MDA-MB-231 human breast cancer cells; assay: MTT assay, MDA-MB-231 cells; format: cell-based; conditions: 20 or 50 μM salubrinal
Experimental: as §1

[9] = system: MDA-MB-231 human breast cancer cells; assay: In vitro invasion assay, MDA-MB-231 cells; format: cell-based; conditions: 20 or 50 μM salubrinal, 24 h, absence of serum
Experimental: as §3

cleaved caspase 3 [10] = assay: Western blot of cleaved caspase 3, MDA-MB-231 cells; format: cell-based, human; conditions: 20 or 50 μM salubrinal, absence of serum
Experimental: as §2

[11] = system: MDA-MB-231 human breast cancer cells; assay: Scratch motility assay, MDA-MB-231 cells; format: cell-based; conditions: 20 or 50 μM salubrinal, 24 h, 10% serum
Experimental: as §4

Rac1 GTPase [12] = assay: FRET-based Rac1 activity imaging, 4T1 cells; format: cell-based, mouse; conditions: 20 μM salubrinal
Experimental: (§5) To visualize Rac1 activity in response to salubrinal, FRET imaging was conducted using a cyan fluorescent protein (CFP)-yellow fluorescent protein (YFP) Rac1 biosensor. The filter sets (Semrock) were chosen for CFP excitation at 438±24 nm (center wavelength±bandwidth), CFP emission at 483±32 nm, and YFP emission at 542±27 nm. Time-lapse images were acquired at an interval of 5 min using a fluorescence microscope (Nikon, Tokyo, Japan). The level of Rac1 activity was determined by computing an emission ratio of YFP/CFP for individual cells using NIS-Elements software (Nikon).

Rac1 GTPase [13] = assay: FRET-based Rac1 activity imaging, MDA-MB-231 cells; format: cell-based, human; conditions: 20 μM salubrinal
Experimental: as §5

[14] = system: 4T1 mouse mammary tumor cells; assay: In vivo tumor growth, BALB/c mice injected with 4T1 cells; conditions: 4T1 cells s.c., 25 μg salubrinal s.c. daily, day 20, mean±S.D., N=18
Experimental: Experimental procedures were approved by the Indiana University Animal Care and Use Committee and were in compliance with the Guiding Principles in the Care and Use of Animals endorsed by the American Physiological Society. Five mice were housed per cage, and fed with mouse chow and water ad libitum. Thirty-five BALB/c female mice (6 weeks, Harlan Laboratories) were used. Mice received subcutaneous injection of 4T1 mouse mammary tumor cells (10^6 cells in 100 μl PBS) to the abdomen on day 1. Twenty-five μg of salubrinal was administered subcutaneously into the area of cell injection every day, while the control animals received a vehicle. The animals were sacrificed on day 20, and the volume and weight of tumors were determined. The tumor volume was calculated as (long diameter)×(short diameter)^2/2.

| SMILES | level of cleaved caspase 3 (cleaved caspase 3 [2]) | cell adhesion (absorbance reading, number of adherent cells) (4T1 cells [3]) | number of cells invaded through the filter coated with Matrigel (4T1 cells [4]) | cell motility (scratch-wound assay) (4T1 cells [5]) | TRAP-positive multi-nucleated cells [6] | development of osteoclasts [6] | NFATc1 protein expression (NFATc1) | mRNA levels of NFATc1, TRAP, OSCAR, c-fos, MMP9, and cathepsin K [7] | also measured |
| --- | --- | --- | --- | --- | --- | --- | --- | --- | --- |
| N=C(N)N/N=C/c1c(Cl)cccc1Cl [guanabenz] | elevated | did not significantly change | significantly reduced | reduced in a dose dependent manner | Reduction | Reduced development of osteoclasts | Suppression | reduced | number of live 4T1 cells (MTT) ([1]; 50 μM guanabenz): decreased |
| O=C(/C=C/c1ccccc1)NC(NC(=S)Nc1cccc2cccnc12)C(Cl)(Cl)Cl (stereo not drawn) [salubrinal] | elevated | did not significantly change | significantly reduced | reduced in a dose dependent manner | Reduction | Reduced development of osteoclasts | Suppression | reduced | number of live 4T1 cells (MTT) ([1]; 10, 20, and 50 μM salubrinal): reduced in a dose dependent manner; salubrinal-driven reduction in cell invasion (4T1 cells [4]; 4T1 cells treated with eIF2α siRNA vs NC siRNA, 20 or 50 μM salubrinal): significantly suppressed; cell invasion (4T1 cells [4]; 4T1 control cells treated with NC siRNA, 20 or 50 μM salubrinal): reduced by salubrinal in a dose dependent manner; salubrinal-driven reduction in cell motility (4T1 cells [5]; 4T1 cells treated with eIF2α siRNA, 20 or 50 μM salubrinal): also suppressed; proliferation (relative cell growth) [8]: inhibitory effects; cell invasion [9]: Reduction in cell invasion; cleaved caspase 3 (cleaved caspase 3 [10]): Dose-dependent elevation; cell motility [11]: Reduction in cell motility; salubrinal-driven reduction in Rac1 activity (Rac1 GTPase [12]; 4T1 cells transfected with eIF2α siRNA): significantly suppressed; Rac1 activity (emission ratio of YFP/CFP) (Rac1 GTPase [12]; 4T1 cells): decreased; Rac1 activity (emission ratio of YFP/CFP) (Rac1 GTPase [13]): decreased; tumor volume [14]: 384.5±248.1 mm^3; tumor weight [14]: 0.32 ± 0.24 g |
